Results on 17 compounds are retold here after patent publication US7728012B2, “Carboxamide compounds and their use as calpain inhibitors” (Abbott GmbH & Co. KG, priority 2006, dated 2010).

Structures can show the parent of a compound that is named as a salt. Some results are limits rather than exact numbers.

The first test deals with T1, recombinant human cathepsin S (Homo sapiens, UniProt P25774).
T1 construct: purchased Calbiochem 219343; host or cells: E. coli
T1 sequence (P25774 115-331): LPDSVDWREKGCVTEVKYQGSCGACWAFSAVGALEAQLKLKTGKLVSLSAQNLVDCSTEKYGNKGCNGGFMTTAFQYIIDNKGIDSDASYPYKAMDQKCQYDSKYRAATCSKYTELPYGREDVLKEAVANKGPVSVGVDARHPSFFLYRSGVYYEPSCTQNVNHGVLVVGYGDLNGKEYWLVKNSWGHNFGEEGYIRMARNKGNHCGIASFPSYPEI
In words: Cathepsin S kinetic fluorescence enzyme inhibition assay. The following applies: selectivity ratio versus calpain I. The class given is biochemical. How it is done: (§1) The following solutions and buffers were employed: • HBS (for 40 ml): 800 μl M HEPES; 2.16 ml 100 mM KCl; 4.8 ml 1M NaCl; 3.59 ml 5% glucose; 60 μl μM MgSO4; 400 μl 100 mM Na pyruvate, 28.19 ml water; pH 7.2-7.5. • lysis buffer (for 20 ml): 400 μl M Tris pH 8.2; 2.74 ml 1M NaCl; 520 μl 0.5M EDTA; 2 ml 10% triton X-100; 0.8 ml (=1:25) CompletePlus (1 tablet/2 ml H2O); 200 μl 100 mM Pefabloc; 13.34 ml water, pH 8.2. • TBST (10×) (for 1 l): 100 mM Tris (12.1 g); 1.5M NaCl (87 g); 1% Tween 20 (10 g), adjusted to pH 8. I Enzyme Inhibition In Vitro: • Testing for blockade of the corresponding enzymic activities was carried out by means of kinetic fluorescence assays (excitation 390 nm, emission 460 nm). • Apparent Ki values were calculated from the experimentally determined IC50 values by the Cheng-Prussoff relation assuming a reversible competitive enzyme inhibition. The Km values of the substrates used under the assay conditions indicated above were: 90 μM (Z-Phe-Arg-AMC, cathepsin B), 10 μM (Z-Gly-Pro-Arg-AMC, cathepsin K), 2 μM (Z-Phe-Arg-AMC, cathepsin L), and 30 μM (Z-Val-Val-Arg-AMC, cathepsin S). • The indicated Ki values are averages of the inhibition constants calculated on the basis of 2 to 4 independent dose-effect plots.
(§2) The following assays were used: • 1. Calpain I: • 20 nM calpain-I—isolated from human erythrocytes (Calbiochem #208713), 100 μM Suc-Leu-Tyr-AMC (Bachem #1-1355) as substrate in buffer with 62 mM imidazole, 0.3 mM CaCl2, 0.10% CHAPS, 0.05% BSA, 1 mM DTT at pH 7.3 and room temperature. • 2. Cathepsin B: • 0.25 nM cathepsin B—isolated from human liver (Calbiochem #219362), 100 μM Z-Phe-Arg-AMC (Bachem #I-1160) as substrate 50 mM MES, 2 mM EDTA, 0.05% Brij 35, 2.5 mM L-cysteine, pH 6.0, room temperature. • 3. Cathepsin K: • 3 nM cathepsin K—activated from recombinant human procathepsin K from E. coli (Calbiochem #342001), 10 μM Z-Gly-Pro-Arg-AMC (Biomol #P-142) as substrate in 50 mM MES, 2 mM EDTA, 0.05% Brij 35, 2.5 mM L-cysteine, pH 6.0, room temperature. • 4. Cathepsin L: • 1 nM cathepsin L—isolated from human liver (Calbiochem #219402), 2 μM Z-Phe-Arg-AMC (Bachem #1-1160) as substrate in 50 mM MES, 2 mM EDTA, 0.05% Brij 35, 2.5 mM L-cysteine, pH 6.0, room temperature. • 5. Cathepsin S: • 0.5 nM recombinant human cathepsin S from E. coli (Calbiochem #219343), 20 μM Z-Val-Val-Arg-AMC (Bachem #1-1540) as substrate in 50 mM MES, 2 mM EDTA, 0.05% Brij 35, 2.5 mM L-cysteine, pH 6.0, room temperature. • The results of the in vitro determination are indicated in Table 1. The following abbreviations are used in Table 1: • The “Calpain activity” column, ++ stands for a calpain Ki (Ki(calpain)) of ≦40 nM and + means: 40 nM<Ki(Calpain)≦100 nM. • The “Sel. cat. B” column indicates the Ki(cathepsin B)/Ki(calpain) ratio. In this connection, ++ means a Ki(cathepsin B)/Ki(calpain) ratio of ≧30 and + means 10≦Ki(cathepsin B)/Ki(calpain)<30. • The “Sel. cat. K” column indicates the Ki(cathepsin K)/Ki(calpain) ratio. In this connection, ++ means a Ki(cathepsin K)/Ki(calpain) ratio of ≧30 and + means 10≦Ki(cathepsin K)/Ki(calpain)<30. • The “Sel. cat. L” column indicates the Ki(cathepsin L)/Ki(calpain) ratio. In this connection, ++ means a Ki(cathepsin L)/Ki(calpain) ratio of ≧50 and + means 30≦Ki(cathepsin L)/Ki(calpain)<50. • The “Sel. cat. S” column indicates the Ki(cathepsin S)/Ki(calpain) ratio. In this connection, ++ means a Ki(cathepsin S)/Ki(calpain) ratio of ≧100 and + means 50≦Ki(cathepsin S)/Ki(calpain)<100.
With `NC(=O)C(=O)C(Cc1ccccc1)NC(=O)c1cccnc1-n1cc(-c2ccccc2F)cn1` (stereo not drawn) [Example 104, N-[3-Amino-2,3-dioxo-1-(phenylmethyl)propyl]-2-[4-(2-fluorophenyl)-1H-pyrazol-1-yl]pyridine-3-carboxamide], the “Sel cat. S (Ki(cathepsin S)/Ki(calpain) ratio)” value was “+ (50≦Ki(cathepsin S)/Ki(calpain)<100)”. Still for that read-out and setting: under `NC(=O)C(=O)C(Cc1ccccc1)NC(=O)c1cccnc1-n1ccc(-c2ccncc2)n1` (stereo not drawn) [Example 65, N-(3-Amino-1-benzyl-2,3-dioxopropyl)-2-(3-pyridin-4-yl-1H-pyrazol-1-yl)nicotinamide] stands “++ (Ki(cathepsin S)/Ki(calpain) ratio of ≧100)”; under `CN(C)Cc1cn(-c2ncccc2C(=O)NC(Cc2ccccc2)C(=O)C(N)=O)nc1-c1cccc(C(F)(F)F)c1` (stereo not drawn) [Example 176, N-[3-Amino-2,3-dioxo-1-(phenylmethyl)propyl]-2-{4-[(dimethylamino)methyl]-3-[3-(trifluoromethyl)phenyl]-1H-pyrazol-1-yl}pyridine-3-carboxamide], “++ (Ki(cathepsin S)/Ki(calpain) ratio of ≧100)”.

The next test addresses T2, calpain-I isolated from human erythrocytes (Homo sapiens, UniProt P07384).
T2 construct: calpain-I—isolated from human erythrocytes; purchased Calbiochem 208713; host or cells: human erythrocytes (tissue isolate)
T2 sequence (P07384 1-714): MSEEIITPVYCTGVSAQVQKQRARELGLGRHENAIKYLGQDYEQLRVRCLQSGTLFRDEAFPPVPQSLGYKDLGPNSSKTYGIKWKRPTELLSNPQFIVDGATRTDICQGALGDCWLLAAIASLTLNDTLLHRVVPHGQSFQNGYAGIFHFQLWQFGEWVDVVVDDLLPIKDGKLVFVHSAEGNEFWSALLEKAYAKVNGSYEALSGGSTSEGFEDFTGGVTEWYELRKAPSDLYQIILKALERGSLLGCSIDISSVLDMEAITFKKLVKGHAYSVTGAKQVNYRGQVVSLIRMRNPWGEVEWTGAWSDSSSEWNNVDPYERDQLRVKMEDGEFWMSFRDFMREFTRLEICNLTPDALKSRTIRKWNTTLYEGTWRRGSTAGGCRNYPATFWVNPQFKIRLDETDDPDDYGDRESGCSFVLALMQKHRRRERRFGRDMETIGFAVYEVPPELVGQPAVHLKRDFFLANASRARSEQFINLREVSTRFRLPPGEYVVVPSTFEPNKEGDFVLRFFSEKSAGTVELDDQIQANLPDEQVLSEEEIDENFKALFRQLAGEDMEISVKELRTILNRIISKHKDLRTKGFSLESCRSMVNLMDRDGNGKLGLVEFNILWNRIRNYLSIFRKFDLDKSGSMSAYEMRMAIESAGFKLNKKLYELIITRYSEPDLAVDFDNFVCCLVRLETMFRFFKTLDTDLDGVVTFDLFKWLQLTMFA
T2 sequence (P04632 1-268 partner): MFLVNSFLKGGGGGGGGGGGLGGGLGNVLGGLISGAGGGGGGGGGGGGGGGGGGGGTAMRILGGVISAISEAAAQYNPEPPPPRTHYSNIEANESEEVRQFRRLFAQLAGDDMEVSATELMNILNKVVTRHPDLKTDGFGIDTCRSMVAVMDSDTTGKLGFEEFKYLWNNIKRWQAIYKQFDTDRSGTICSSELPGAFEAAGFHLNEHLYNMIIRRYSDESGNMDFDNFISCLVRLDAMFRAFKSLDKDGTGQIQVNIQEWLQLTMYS
In words: Calpain I kinetic fluorescence enzyme inhibition assay. The following applies: apparent Ki from IC50 by Cheng-Prussoff; average of 2 to 4 dose-effect plots. The class given is biochemical. How it is done: as §1, §2
For the compound `NC(=O)C(=O)C(Cc1ccccc1)NC(=O)c1cccnc1-n1cc(-c2ccccc2F)cn1` (stereo not drawn) [Example 104, N-[3-Amino-2,3-dioxo-1-(phenylmethyl)propyl]-2-[4-(2-fluorophenyl)-1H-pyrazol-1-yl]pyridine-3-carboxamide], the Ki was at most 40 nM. Same read-out and setting: under `NC(=O)C(=O)C(Cc1ccccc1)NC(=O)c1cccnc1-n1ccc(-c2ccc3ocnc3c2)n1` (stereo not drawn) [Example 129, N-[3-Amino-2,3-dioxo-1-(phenylmethyl)propyl]-2-[3-(1,3-benzoxazol-5-yl)-1H-pyrazol-1-yl]pyridine-3-carboxamide] stands 40 to 100 nM; under `O=C[C@H](Cc1ccccc1)NC(=O)c1cccnc1-n1ccc(-c2ccccc2)n1` [Example 105, N-[(1S)-1-Formyl-2-phenylethyl]-2-(3-phenyl-1H-pyrazol-1-yl)pyridine-3-carboxamide], at most 40 nM. Same read-out and setting: under `CCCCC(NC(=O)c1cccnc1-n1cnc(-c2cccc(Cl)c2)c1)C(=O)C(N)=O` (stereo not drawn) [Example 21, N-{1-[Amino(oxo)acetyl]pentyl}-2-[4-(3-chlorophenyl)-1H-imidazol-1-yl]nicotinamide] stands at most 40 nM; under `NC(=O)C(=O)C(Cc1ccccc1)NC(=O)c1cccnc1-n1cnc(-c2cccc(Cl)c2)c1` (stereo not drawn) [Example 22, N-(3-Amino-1-benzyl-2,3-dioxopropyl)-2-[4-(3-chlorophenyl)-1H-imidazol-1-yl]nicotinamide], at most 40 nM; under `NC(=O)C(=O)C(Cc1ccccc1)NC(=O)c1cc(Cl)cnc1-n1cnc(-c2ccccc2)c1` (stereo not drawn) [Example 23, N-(3-Amino-1-benzyl-2,3-dioxopropyl)-5-chloro-2-(4-phenyl-1H-imidazol-1-yl)nicotinamide hydrochloride], at most 40 nM.

On to `NC(=O)C(=O)C(Cc1ccccc1)NC(=O)c1cccnc1-n1cnc(-c2ccccc2Cl)c1` (stereo not drawn) [Example 19, N-(3-Amino-1-benzyl-2,3-dioxopropyl)-2-[4-(2-chlorophenyl)-1H-imidazol-1-yl]nicotinamide hydrochloride], for which the Ki is at most 40 nM. Same read-out and setting: under `CCN(CC)c1ccc(-c2cn(-c3ncccc3C(=O)NC(Cc3ccccc3)C(=O)C(N)=O)cn2)cc1` (stereo not drawn) [Example 16, N-(3-Amino-1-benzyl-2,3-dioxopropyl)-2-{4-[4-(diethylamino)phenyl]-1H-imidazol-1-yl}nicotinamide hydrochloride] stands 40 to 100 nM; under `CCCCC(NC(=O)c1cccnc1-n1cnc(-c2ccc(OC)cc2)c1)C(=O)C(N)=O` (stereo not drawn) [Example 12, N-{1-[Amino(oxo)acetyl]pentyl}-2-[4-(4-methoxyphenyl)-1H-imidazol-1-yl]nicotinamide], at most 40 nM; under `CC(C)CC(NC(=O)c1cc(Cl)cnc1-n1cnc(-c2ccccc2)c1)C(=O)C(N)=O` (stereo not drawn) [Example 25, N-{1-[Amino(oxo)acetyl]-3-methylbutyl}-5-chloro-2-(4-phenyl-1H-imidazol-1-yl)nicotinamide], at most 40 nM. On the same count and under the same terms, under `CCCCC(NC(=O)c1cccnc1-n1cnc(-c2ccc(Cl)cc2)c1)C(=O)C(N)=O` (stereo not drawn) [Example 10, N-{1-[Amino(oxo)acetyl]pentyl}-2-[4-(4-chlorophenyl)-1H-imidazol-1-yl]nicotinamide] stands at most 40 nM; under `NC(=O)C(=O)C(Cc1ccccc1)NC(=O)c1cccnc1-n1cc(-c2ccccc2)cn1` (stereo not drawn) [Example 4, N-(3-Amino-1-benzyl-2,3-dioxopropyl)-2-(4-phenyl-1H-pyrazol-1-yl)nicotinamide], at most 40 nM; under `COc1ccc(CC(NC(=O)c2cccnc2-n2ccc(-c3cccc(C(F)(F)F)c3)n2)C(=O)C(N)=O)cc1` (stereo not drawn) [Example 126, N-(3-Amino-1-{[4-(methyloxy)phenyl]methyl}-2,3-dioxopropyl)-2-{3-[3-(trifluoromethyl)phenyl]-1H-pyrazol-1-yl}pyridine-3-carboxamide], at most 40 nM. The same measure, in the same setting: as for `CCCCC(NC(=O)c1cccnc1-n1cnc(-c2ccccc2Cl)c1)C(=O)C(N)=O` (stereo not drawn) [Example 20, N-{1-[Amino(oxo)acetyl]pentyl}-2-[4-(2-chlorophenyl)-1H-imidazol-1-yl]nicotinamide hydrochloride], the figure is at most 40 nM. For `NC(=O)C(=O)C(Cc1ccccc1)NC(=O)c1cccnc1-n1ncc2ccccc21` (stereo not drawn) [Example 77, N-(3-Amino-1-benzyl-2,3-dioxopropyl)-2-(1H-indazol-1-yl)nicotinamide], the Ki is at most 40 nM.
